The text below walks through data of patent US9023852B2, “1, 2, 4-thiadiazol-5-ylpiperazine derivatives useful in the treatment of neurodegenerative diseases” (Remynd NV, priority 2011, dated 2015).

What is called EC50 is the concentration at which the effect is half-maximal. A higher EC50 goes with weaker potency.

In the assay the test system is M17—3TAU(P301L) cells. As to the kind of experiment: Neuroblastoma tauopathy model: inhibition of TAU-induced cytotoxicity (LDH). In kind it is cell-based. Conditions: Homo sapiens, 168 h; inhibition of TAU-induced toxicity (LDH), 7 days differentiation with retinoic acid. An outline of the steps: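 BE-M17 neuroblastoma cells stably expressing human TAU-P301L, differentiated with RA (2.5 μM in added medium) for 7 days at 37 °C with compounds at a range of concentrations. Cytotoxicity as supernatant LDH over total LDH (Cytotox 96); EC50 from dose-dependent inhibition curve.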
The molecule `N#Cc1ccc(-c2nsc(N3CCN(CCc4cccc(C(F)(F)F)c4)CC3)n2)cc1` [Example 143, 4-(5-{4-[2-(3-Trifluoromethyl-phenyl)-ethyl]-piperazin-1-yl}-[1,2,4]thiadiazol-3-yl)-benzonitrile] displayed an EC50 of 143 nM.

Regarding `FC(F)(F)c1ccc(CCN2CCN(c3nc(-c4ccc(Cl)cc4)ns3)CC2)cc1` [Example 144, 1-[3-(4-Chloro-phenyl)-[1,2,4]thiadiazol-5-yl]-4-[2-(4-trifluoromethyl-phenyl)-ethyl]-piperazine], a half-maximal effect (EC50) was put at 602 nM.

The molecule `FC(F)(F)c1ccc(CCN2CCN(c3nc(-c4cccc(Cl)c4)ns3)CC2)cc1` [Example 145, 1-[3-(3-Chloro-phenyl)-[1,2,4]thiadiazol-5-yl]-4-[2-(4-trifluoromethyl-phenyl)-ethyl]-piperazine] yielded an EC50 of 462 nM.

On to `Fc1ccc(-c2nsc(N3CCN(CCc4ccc(C(F)(F)F)cc4)CC3)n2)cc1F` [Example 146, 1-[3-(3,4-Difluoro-phenyl)-[1,2,4]thiadiazol-5-yl]-4-[2-(4-trifluoromethyl-phenyl)-ethyl]-piperazine], for which the EC50 was determined as 60.1 nM.

For the molecule `N#Cc1ccc(-c2nsc(N3CCN(CCc4ccc(C(F)(F)F)cc4)CC3)n2)cc1` [Example 147, 4-(5-{4-[2-(4-Trifluoromethyl-phenyl)-ethyl]-piperazin-1-yl}-[1,2,4]thiadiazol-3-yl)-benzonitrile], the EC50 was 176 nM.

As to `Cc1ccc(-c2nsc(N3CCN(CCc4ccc(F)c(F)c4)CC3)n2)cn1` [Example 148, 1-[2-(3,4-Difluoro-phenyl)-ethyl]-4-[3-(6-methyl-pyridin-3-yl)-[1,2,4]thiadiazol-5-yl]-piperazine], the midpoint of the response, the EC50, lay at 67.5 nM.

Molecule `FC(F)(F)c1cccc(CCN2CCN(c3nc(-c4cncc(Cl)c4)ns3)CC2)c1` [Example 149, 1-[3-(5-Chloro-pyridin-3-yl)-[1,2,4]thiadiazol-5-yl]-4-[2-(3-trifluoromethyl-phenyl)-ethyl]-piperazine] yielded an EC50 of 3 nM.

Take `Cc1ccc(-c2nsc(N3CCN(Cc4ccccc4C)CC3)n2)cn1` [Example 150, 1-(2-Methyl-benzyl)-4-[3-(6-methyl-pyridin-3-yl)-[1,2,4]thiadiazol-5-yl]-piperazine]: the EC50 worked out at 185 nM.

With `Cc1ccccc1CN1CCN(c2nc(-c3cncc(Cl)c3)ns2)CC1` [Example 151, 1-[3-(5-Chloro-pyridin-3-yl)-[1,2,4]thiadiazol-5-yl]-4-(2-methyl-benzyl)-piperazine], the EC50 was 8.2 nM.

`FC(F)(F)c1ccc(CCN2CCN(c3nc(-c4cncc(Cl)c4)ns3)CC2)cc1` [Example 152, 1-[3-(5-Chloro-pyridin-3-yl)-[1,2,4]thiadiazol-5-yl]-4-[2-(4-trifluoromethyl-phenyl)-ethyl]-piperazine] registered an EC50 of 215 nM.

The molecule `Fc1ccc(-c2nsc(N3CCN(CCC4CCCCC4)CC3)n2)cc1F` [Example 153, 1-(2-Cyclohexyl-ethyl)-4-[3-(3,4-difluoro-phenyl)-[1,2,4]thiadiazol-5-yl]-piperazine] returned an EC50 of 5.9 nM.

`Fc1cccc(-c2nsc(N3CCN(CCC4CCCCC4)CC3)n2)c1` [Example 154, 1-(2-Cyclohexyl-ethyl)-4-[3-(3-fluoro-phenyl)[1,2,4]thiadiazol-5-yl]-piperazine] gave an EC50 of 17 nM.

Molecule `Cc1ccc(-c2nsc(N3CCN(CCCc4ccccc4)CC3)n2)cc1` [Example 155, 5-(4-(3-phenylpropyl)piperazin-1-yl)-3-(p-tolyl)-1,2,4-thiadiazole] returned an EC50 of 976 nM.

In turn, `Fc1cccc(-c2nsc(N3CCN(CCc4ccc(F)c(F)c4)CC3)n2)c1` [Example 156, 5-(4-(3,4-difluorophenethyl)piperazin-1-yl)-3-(3-fluorophenyl)-1,2,4-thiadiazole] came in with an EC50 of 11.9 nM.

`Fc1ccc(CCN2CCN(c3nc(-c4cc(Cl)ccn4)ns3)CC2)cc1F` [Example 157, 3-(4-chloropyridin-2-yl)-5-(4-(3,4-difluorophenethyl)piperazin-1-yl)-1,2,4-thiadiazole] gave an EC50 of 29 nM.
